In PubChem BioAssay (NCI):
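The concentration for 50% growth inhibition is given as GI50. The concentration for full growth arrest is given as TGI.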

What was measured:
Experiment in all cases: NCI anticancer screen, dose series, 384-well format
HCC-2998 colon = test system: HCC-2998 colon
MDA-MB-468 breast = test system: MDA-MB-468 breast
SF-268 CNS = test system: SF-268 CNS
SK-OV-3 ovarian = test system: SK-OV-3 ovarian
SNB-19 CNS = test system: SNB-19 CNS
RPMI-8226 leukemia = test system: RPMI-8226 leukemia
NCI-H522 lung = test system: NCI-H522 lung
SNB-75 CNS = test system: SNB-75 CNS
A498 renal = test system: A498 renal
HCT-116 colon = test system: HCT-116 colon
BT-549 breast = test system: BT-549 breast
SN12C renal = test system: SN12C renal
OVCAR-4 ovarian = test system: OVCAR-4 ovarian
OVCAR-8 ovarian = test system: OVCAR-8 ovarian
OVCAR-5 ovarian = test system: OVCAR-5 ovarian
CCRF-CEM leukemia = test system: CCRF-CEM leukemia
RXF 393 renal = test system: RXF 393 renal
NCI-H226 lung = test system: NCI-H226 lung
TK-10 renal = test system: TK-10 renal
SW-620 colon = test system: SW-620 colon
NCI-H23 lung = test system: NCI-H23 lung
ACHN renal = test system: ACHN renal
NCI-H322M lung = test system: NCI-H322M lung
M14 melanoma = test system: M14 melanoma
IGROV1 ovarian = test system: IGROV1 ovarian
MDA-MB-435 melanoma = test system: MDA-MB-435 melanoma
PC-3 prostate = test system: PC-3 prostate
DU-145 prostate = test system: DU-145 prostate
HCT-15 colon = test system: HCT-15 colon
UO-31 renal = test system: UO-31 renal
SF-539 CNS = test system: SF-539 CNS
U251 glioblastoma = test system: U251 glioblastoma
HL-60(TB) leukemia = test system: HL-60(TB) leukemia
SK-MEL-28 melanoma = test system: SK-MEL-28 melanoma
LOX IMVI melanoma = test system: LOX IMVI melanoma
KM12 colon = test system: KM12 colon
MDA-MB-231 breast = test system: MDA-MB-231 breast
HT29 colon = test system: HT29 colon
T-47D breast = test system: T-47D breast
OVCAR-3 ovarian = test system: OVCAR-3 ovarian
K-562 leukemia = test system: K-562 leukemia
EKVX NSCLC = test system: EKVX NSCLC
MALME-3M melanoma = test system: MALME-3M melanoma
HOP-92 NSCLC = test system: HOP-92 NSCLC
HOP-62 NSCLC = test system: HOP-62 NSCLC
A549 NSCLC = test system: A549 NSCLC
SK-MEL-5 melanoma = test system: SK-MEL-5 melanoma
UACC-257 melanoma = test system: UACC-257 melanoma
CAKI-1 renal = test system: CAKI-1 renal
SR leukemia = test system: SR leukemia
SF-295 CNS = test system: SF-295 CNS
NCI-H460 NSCLC = test system: NCI-H460 NSCLC
786-0 renal = test system: 786-0 renal
HS 578T breast = test system: HS 578T breast
NCI/ADR-RES ovarian = test system: NCI/ADR-RES ovarian
MOLT-4 leukemia = test system: MOLT-4 leukemia

## Nc1cc(C(F)(F)F)c(-c2cc(N3CCOCC3)nc(N3CCOCC3)n2)cn1
HCC-2998 colon
  GI50: 1.08 µM
  TGI: 3.37 µM
MDA-MB-468 breast
  GI50: 0.23 µM
  TGI: 0.618 µM
SF-268 CNS
  GI50: 0.384 µM
  TGI: 4.57 µM
SK-OV-3 ovarian
  GI50: 0.56 µM
  TGI: 2.55 µM
SNB-19 CNS
  GI50: 2.03 µM
  TGI: 7.76 µM
RPMI-8226 leukemia
  GI50: 0.185 µM
  TGI: 0.385 µM
NCI-H522 lung
  GI50: 0.341 µM
  TGI: 1.3 µM
SNB-75 CNS
  GI50: 0.287 µM
  TGI: 1.19 µM
A498 renal
  GI50: 0.387 µM
  TGI: 1.87 µM
HCT-116 colon
  GI50: 0.852 µM
  TGI: 7.53 µM
BT-549 breast
  GI50: 0.691 µM
  TGI: 4.61 µM
SN12C renal
  GI50: 1.22 µM
  TGI: 7.12 µM
OVCAR-4 ovarian
  GI50: 1.26 µM
  TGI: 6.66 µM
OVCAR-8 ovarian
  GI50: 0.46 µM
  TGI: 14 µM
OVCAR-5 ovarian
  GI50: 0.687 µM
  TGI: > 100 µM
CCRF-CEM leukemia
  GI50: 0.589 µM
  TGI: 1.88 µM
RXF 393 renal
  GI50: 0.285 µM
  TGI: 1.3 µM
NCI-H226 lung
  GI50: 0.574 µM
  TGI: 4.13 µM
TK-10 renal
  GI50: 0.572 µM
  TGI: 2.73 µM
SW-620 colon
  GI50: 0.358 µM
  TGI: > 100 µM
NCI-H23 lung
  GI50: 0.31 µM
  TGI: 2.26 µM
ACHN renal
  GI50: 0.246 µM
  TGI: 10 µM
NCI-H322M lung
  GI50: 1.62 µM
  TGI: 7.01 µM
M14 melanoma
  GI50: 0.416 µM
  TGI: 8.85 µM
IGROV1 ovarian
  GI50: 0.209 µM
  TGI: 0.572 µM
MDA-MB-435 melanoma
  GI50: 0.223 µM
  TGI: 0.449 µM
PC-3 prostate
  GI50: 0.462 µM
  TGI: 6.93 µM
DU-145 prostate
  GI50: 1.99 µM
  TGI: 13.9 µM
HCT-15 colon
  GI50: 0.394 µM
  TGI: 4.11 µM
UO-31 renal
  GI50: 0.34 µM
  TGI: 3.07 µM
SF-539 CNS
  GI50: 1.21 µM
  TGI: 2.91 µM
U251 glioblastoma
  GI50: 1.77 µM
  TGI: 4.37 µM
HL-60(TB) leukemia
  GI50: 0.28 µM
  TGI: 1.3 µM
SK-MEL-28 melanoma
  GI50: 0.485 µM
  TGI: 3.34 µM
LOX IMVI melanoma
  GI50: 1.18 µM
  TGI: 10.7 µM
KM12 colon
  GI50: 0.894 µM
  TGI: 20.2 µM
MDA-MB-231 breast
  GI50: 0.819 µM
  TGI: 44.9 µM
HT29 colon
  GI50: 0.715 µM
  TGI: > 100 µM
T-47D breast
  GI50: 0.231 µM
  TGI: 0.776 µM
OVCAR-3 ovarian
  GI50: 0.546 µM
  TGI: 2.46 µM
K-562 leukemia
  GI50: 0.459 µM
  TGI: 1.83 µM
EKVX NSCLC
  GI50: 0.793 µM
  TGI: 6.28 µM
MALME-3M melanoma
  GI50: 0.272 µM
  TGI: 0.838 µM
HOP-92 NSCLC
  GI50: 0.562 µM
  TGI: 4 µM
HOP-62 NSCLC
  GI50: 0.264 µM
  TGI: 2.73 µM
A549 NSCLC
  GI50: 0.36 µM
  TGI: 12.4 µM
SK-MEL-5 melanoma
  GI50: 0.235 µM
  TGI: 0.762 µM
UACC-257 melanoma
  GI50: 0.93 µM
  TGI: 7.27 µM
CAKI-1 renal
  GI50: 0.23 µM
  TGI: 0.804 µM
SR leukemia
  GI50: 0.0459 µM
  TGI: 0.16 µM
SF-295 CNS
  GI50: 0.361 µM
  TGI: 1.54 µM
NCI-H460 NSCLC
  GI50: 0.419 µM
  TGI: 1.67 µM
786-0 renal
  GI50: 1.97 µM
  TGI: 7 µM
HS 578T breast
  GI50: 0.443 µM
  TGI: 1.75 µM
NCI/ADR-RES ovarian
  GI50: 0.265 µM
  TGI: 1.67 µM
MOLT-4 leukemia
  GI50: 0.333 µM
  TGI: 1.33 µM
